According to patent US7928060B2, “Amylin family polypeptide-6 (AFP-6) analogs and methods of making and using them” (Amylin Pharmaceuticals, Inc., priority 2004, dated 2011):
Like-named read-outs stand apart in the source and are kept apart here.

Experiments:
NIH/Swiss mice = experiment: acute food intake assay in overnight-fasted mice, IP injection; type: in vivo, mouse
Protocol: The effect of AFP-6 on food intake was investigated using an acute food intake assay. This assay measured food consumption in lean, group-housed, overnight-fasted NIH/Swiss mice. 12 mice were housed 3 to a cage. The sample compound, in this case AFP-6, was injected IP in mice and food intake was measured during the next 2-hours. Decreased, as well as increased, food intake can be measured. Testing various doses of the compound generated ED50's. The assay was performed as follows: 1. Remove food (water ad libitum) at 5:00 pm the evening before the study. 2. Weigh food pellets (3 pellets/cage). 3. Inject animals intraperitoneally with 200 ul of appropriate solution, t=0. 4. Immediately add pre-weighed food to each cage (away from water bottle spout) and allow animals to feed undisturbed. 5. At 30, 60, and 120 minutes, collect and weigh food. 6. Analyze data. Data points represent mean ±sd of n=12.
Twelve mice were injected IP at t=0 for each dose, 0.3, 1, 3, 10, 30, 100, or 300 nmol/kg of AFP-6 (Amylin Pharmaceuticals, Inc.) (n=12/group). Food was introduced immediately after injection and amount consumed measured at t=30, 60, and 120 min.

CGRP receptors = target: T1, CGRP receptors (Homo sapiens, UniProt O60894+Q16602); experiment: CGRP radioligand binding assay (125I-hCGRP, SK-N-MC cell membranes); details: FIG. 11
T1 construct: membranes prepared from SK-N-MC cells, known to express CGRP receptors; endogenous in cells; host or cells: SK-N-MC cell membranes

calcitonin receptor = experiment: cAMP production in CHO cells (AlphaScreen); type: cell-based; details: for EC50: CHO, 30,000 cells/well
[1] = system: Harlan Sprague Dawley rats; experiment: gastric emptying rate in conscious rats (3H-glucose gavage); type: in vivo, rat; details: subcutaneous
Protocol: Male Harlan Sprague Dawley® rats, 237-317 g, were housed with a 12:12 hour light:dark cycle. The experiment was carried out during the light cycle. At time=0 min, test peptide (amylin or AFP-6) at 6.3, 20, 63, 200, 632, and 1122 μg/kg or vehicle was injected (subcutaneous) into conscious rats (n=6/group). At t=5 min, a solution of 1 mL sterile water containing 5 μCi D-[3-^3H] glucose was gavaged by oropharyngeal tube to conscious rats. Blood samples were collected 30 min after gavage and assayed for counts per minute (CPM) in plasma. 20% benzocaine liquid topical anesthetic was used to eliminate pain during sampling. (Gedulin et al. (1995) Gastroenterology 108:A604). The appearance of counts in plasma is a reflection of the rate of gastric emptying. Significance of difference (p<0.05) was determined by ANOVA.

[2] = plasma ionized calcium in rats; type: in vivo, rat; details: subcutaneous, samples of Example 4
Protocol: Using the samples obtained from Example 4, ionized calcium was measured in plasma samples obtained from gastric emptying experiments described above, using an ion selective electrode, Ciba/Corning 634 Ca/pH analyzer (Ciba/Corning, Inc., Medfield, Mass.).

rats = experiment: telemetry of cardiovascular parameters in conscious rats; type: in vivo, rat; details: 10 nmol/kg intravenous
Source text: Telemetry allows for real-time hemodynamic readings including arterial pressure, heart rate, arterial dP/dt, ECG (with waveform intervals) and core temperature via an implanted radio transmitter in conscious, non-anesthetized, unrestrained rats. […] Remote intravenous dosing is achieved through in-dwelling vascular access ports.

Sprague-Dawley rats = experiment: 1-week continuous subcutaneous infusion in high fat-fed rats: food intake and body weight; type: in vivo, rat; details: 75 nmol/kg/day
Source text: Individually housed male Sprague-Dawley® rats (beginning weight=310 g; 12-h light/dark cycle) were maintained on a high fat (HF) diet (Research Diet 58% kcal from fat). Rats were fattened for 34 days. At the end of the fattening period, 7-day osmotic pumps (Durect Corp.) were implanted interscapularly under anesthesia (body weight at time of implant=403 g). The rats received pumps delivering compound or vehicle (50% DMSO). The following compounds were examined at a 75 nmol/kg/day dose: AFP-6, and an AFP-6 analog SEQ ID NO:32. Food intake and body weight measurements were obtained on day 2 and day 7. Group differences were analyzed using analysis of variance (ANOVA) and Fisher's Least-Significant Difference test.

adrenomedullin receptor [3] = details: bovine studies; cited from earlier work
adrenomedullin receptor [4] = target: adrenomedullin receptor (Homo sapiens, UniProt O60895+Q16602); experiment: cAMP production in HUVECs (AlphaScreen); type: cell-based; design: tested for bioactivity in HUVECs that contain the adrenomedullin receptor; endogenous in cells; host or cells: HUVEC
adrenomedullin receptor (Homo sapiens, UniProt O60895+Q16602), sequence (Q16602 23-461): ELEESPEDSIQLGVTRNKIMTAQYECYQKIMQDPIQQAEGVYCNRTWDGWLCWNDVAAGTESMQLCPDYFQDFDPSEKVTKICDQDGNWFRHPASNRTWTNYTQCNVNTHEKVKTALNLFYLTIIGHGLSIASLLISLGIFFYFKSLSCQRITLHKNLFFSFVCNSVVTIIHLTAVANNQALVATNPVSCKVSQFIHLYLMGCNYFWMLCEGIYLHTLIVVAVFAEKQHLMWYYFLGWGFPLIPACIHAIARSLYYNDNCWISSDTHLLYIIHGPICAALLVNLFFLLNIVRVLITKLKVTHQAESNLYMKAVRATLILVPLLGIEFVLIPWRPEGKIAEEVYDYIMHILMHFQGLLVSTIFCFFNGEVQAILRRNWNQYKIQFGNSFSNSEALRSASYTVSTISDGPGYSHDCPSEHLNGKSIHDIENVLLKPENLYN
adrenomedullin receptor (Homo sapiens, UniProt O60895+Q16602), sequence (O60895 43-175): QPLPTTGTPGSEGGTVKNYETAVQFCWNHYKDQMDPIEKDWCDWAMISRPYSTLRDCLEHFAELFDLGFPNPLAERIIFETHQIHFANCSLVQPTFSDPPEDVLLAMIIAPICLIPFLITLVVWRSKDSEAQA

T1 sequence (Q16602 23-461): as the sequence (Q16602 23-461) above
T1 sequence (O60894 27-148): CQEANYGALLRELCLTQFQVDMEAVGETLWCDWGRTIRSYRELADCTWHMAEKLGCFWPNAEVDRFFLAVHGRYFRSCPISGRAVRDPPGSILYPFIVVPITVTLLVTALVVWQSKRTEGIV

## CSCC[C@H](NC(=O)[C@H](CC(C)C)NC(=O)[C@H](CCC(N)=O)NC(=O)[C@H](Cc1c[nH]c2ccccc12)NC(=O)[C@H](CC(C)C)NC(=O)[C@H](CCCNC(=N)N)NC(=O)[C@H](Cc1c[nH]cn1)NC(=O)[C@H](CO)NC(=O)[C@H](CC(C)C)NC(=O)[C@H](CC(N)=O)NC(=O)[C@H](CCC(N)=O)NC(=O)[C@@H](NC(=O)[C@H](CCC(N)=O)NC(=O)[C@@H]1CSSC[C@H](NC(=O)CNC(=O)[C@@H](NC(=O)[C@H](CCCNC(=N)N)NC(=O)[C@H](CC(C)C)NC(=O)[C@H](CC(C)C)NC(=O)[C@H](CCC(N)=O)NC(=O)[C@H](C)NC(=O)[C@H](CCC(N)=O)NC(=O)[C@@H](N)[C@@H](C)O)C(C)C)C(=O)N[C@@H](C(C)C)C(=O)N[C@@H](CC(C)C)C(=O)NCC(=O)N[C@@H]([C@@H](C)O)C(=O)N1)C(C)C)C(=O)NCC(=O)N1CCC[C@H]1C(=O)N[C@@H](C)C(=O)NCC(=O)N[C@@H](CCCNC(=N)N)C(=O)N[C@@H](CCC(N)=O)C(=O)N[C@@H](CC(=O)O)C(=O)N[C@@H](CO)C(=O)N[C@@H](C)C(=O)N1CCC[C@H]1C(=O)N[C@H](C(=O)N[C@@H](CC(=O)O)C(=O)N1CCC[C@H]1C(=O)N[C@@H](CO)C(=O)N[C@@H](CO)C(=O)N1CCC[C@H]1C(=O)N[C@@H](Cc1c[nH]cn1)C(=O)N[C@@H](CO)C(=O)N[C@@H](Cc1ccc(O)cc1)C(N)=O)C(C)C [SEQ ID NO: 1]
NIH/Swiss mice; 1 mg/kg IP, mice
  inhibition of food intake: 91%
NIH/Swiss mice; 60 min time point, 0.3-300 nmol/kg IP, non-linear regression
  ED50, short-term food intake: 19 nmol/kg
NIH/Swiss mice; food intake, 30 min
  FI 30 min ED50: 9 to 14 nmol/kg
NIH/Swiss mice; food intake, 60 min
  FI 60 min ED50: 14 to 19 nmol/kg
CGRP receptors
  rank order, displacement of CGRP: CGRP >adrenomedullin >AFP-6 >amylin>>calcitonin
Calcitonin receptor; average of three experiments, read-out: Average EC50
  EC50: 9.63 nM
Calcitonin receptor; read-out: Experiment 1 EC50
  EC50: 11.3 nM
Calcitonin receptor; read-out: Experiment 2 EC50
  EC50: 10.6 nM
Calcitonin receptor; read-out: Experiment 3 EC50
  EC50: 7 nM
Calcitonin receptor; cAMP, FIG. 9
  rank order of potency in CHO cells: AFP-6>adrenomedullin=CGRP alpha
Calcitonin receptor; cAMP, panel of related peptides
  rank order of potency, CHO cell experiments: calcitonin >AFP-6>amylin >hCGRP alpha>adrenomedullin
[1]
  ED50, inhibition of gastric emptying: 0.049 mg/kg
[2]
  ED50, decrease of plasma ionized calcium: 0.025 mg/kg
rats
  profile over all three cardiovascular parameters: profile more amylin-like than adrenomedullin like
Sprague-Dawley rats; Day 7
  body weight gain compared to Vehicle: significantly less body weight gain than Vehicle
  percent body weight loss (vehicle-corrected): 3.2%
Sprague-Dawley rats; after 2 days of treatment
  food intake compared to Vehicle: significantly reduced food intake
Adrenomedullin receptor [3]
  binding at the adrenomedullin receptor: 1 to 5 nM
Adrenomedullin receptor [4]; HUVECs, 1 μM and 10 nM
  increase of cAMP levels: active in increasing cAMP levels
Adrenomedullin receptor [4]; cAMP, FIG. 9
  rank order of potency in HUVECs: adrenomedullin >AFP-6>>CGRP alpha
